Experimental data published in patent EP3594336A1, “TREATMENT OF DOWN SYNDROME” (Université de Strasbourg, priority 2018, dated 2020).

Key:
DYRK1A = details: treatment with EGCG, as reported previously; cited from earlier work
[1] = system: yeast cells overexpressing Cys4; assay: Drug screening in yeast: suppression of methionine auxotrophy (halo of restored growth around filter); format: cell-based, Saccharomyces cerevisiae; details: same plate assay; high concentrations = close to the filter
Protocol: As an example, for the drug screening, yeast cells transformed with p424-GPD and p426-GPD plasmids containing yeast CBS (CYS4) coding sequence were grown in uracil- and tryptophan-free minimal liquid medium (SD-Ura/Trp) overnight at 29°C. The following day, cells were diluted to OD600∼0.2 in fresh medium and grown for 4 hours to reach exponential phase. Then three hundred and fifty microliters of exponentially growing yeast cells overexpressing CYS4, adjusted to an OD600 of 0.5, were spread homogeneously with sterile glass beads (a mix of ∼1.5 and 3 mm diameter) on a square Petri dish (12 cm × 12cm) containing uracil-, tryptophan- and methionine-free minimal agar-based solid medium (SD-UrarTrp/Met). In addition, to get a degree of methionine auxotrophy sufficient to allow an efficient screening, the screening medium was supplemented with serine (2% (w/v)), which is one of CYS4/CBS substrates. Sterile filters (Thermo Fisher similar to those used for antibiograms) were placed on the agar surface, and 2 µl of individual compound from the various chemical libraries were applied to each filter. […]
According to the present invention, it was decided to create a yeast model in which the phenotypical consequences of CBS overexpression may be easily and conveniently monitored in order to get a potential in cellulo high throughput drug screening procedure. […]

Compound: O=C(O[C@@H]1Cc2c(O)cc(O)cc2O[C@@H]1c1cc(O)c(O)c(O)c1)c1cc(O)c(O)c(O)c1 [epigallocatechin-3-gallate]
- cognitive aspects found altered in people with DS (DYRK1A): can restore some cognitive aspects found altered in people with DS but the gain was limited

Compound: CCN(CC)C(=S)SSC(=S)N(CC)CC [DSF, Disulfiram]
- toxicity on CYS4-overexpressing cells [1]: toxic at high concentrations
